From US4312874A, “Antibacterial compounds, processes for their preparation and compositions containing them” (Beecham Group Limited, priority 1979, dated 1982)
≈ marks a conversion by molar mass, not a printed value. Like-named read-outs stand apart in the source and are kept apart here.

Columns and labels:
E. coli NCTC 10418 [1] = assay: MIC by serial dilution in nutrient agar with 5% chocolated horse blood; type: cell-based; conditions: Escherichia coli, NCTC10418
Ps. aeruginosa 10662 = assay: as above; type: cell-based; conditions: Pseudomonas aeruginosa
[2] = tested on: Haemophilus influenzae Q1; assay: as above; type: cell-based; conditions: Table 1
[3] = tested on: Haemophilus influenzae Wy21; assay: as above; type: cell-based
[4] = tested on: Neisseria catarrhalis 1502; assay: as above; type: cell-based
[5] = tested on: Corynebacterium xerosis 9755; assay: as above; type: cell-based; conditions: Table 1
Sarcina lutea 8340 = assay: as above; type: cell-based; conditions: Micrococcus luteus
Staph. aureus Oxford = assay: as above; type: cell-based; conditions: Staphylococcus aureus; Table 1
Staph. aureus Russell = assay: as above; type: cell-based; conditions: Staphylococcus aureus; Table 1
Staph. aureus W2827 = assay: as above; type: cell-based; conditions: Staphylococcus aureus, Table 1
Strep. faecalis = assay: as above; type: cell-based; conditions: Enterococcus faecalis
Strep. pyogenes B 2788 = assay: as above; type: cell-based; conditions: Streptococcus pyogenes, B2788; Table 1
Strep. pyogenes C 2761 = assay: as above; type: cell-based; conditions: Streptococcus pyogenes, C2761; Table 1
Strep. pneumoniae CN33 = assay: as above; type: cell-based; conditions: Streptococcus pneumoniae, Table 1
M.suipneumoniae NB12 = assay: in vitro MIC by serial dilution in Friis modified agarose medium; type: cell-based; conditions: Mesomycoplasma hyopneumoniae, Table 3
M. siupneumoniae HK(2) = assay: as above; type: cell-based; conditions: Table 3
M. suipneumoniae Str. 11 = assay: as above; type: cell-based; conditions: Mesomycoplasma hyopneumoniae, Table 3
[6] = tested on: M. suipneumoniae J2206/183b; assay: as above; type: cell-based; conditions: Mesomycoplasma hyopneumoniae, Table 3
M. suipneumoniae MS 16 = assay: as above; type: cell-based; conditions: Mesomycoplasma hyopneumoniae, MS16; Table 3
[7] = tested on: M. suipneumoniae PW/C/210; assay: as above; type: cell-based; conditions: Mesomycoplasma hyopneumoniae; Table 3
M. suipneumoniae LABER = assay: as above; type: cell-based; conditions: Mesomycoplasma hyopneumoniae; Table 3
M. suipneumoniae UCD 1 = assay: as above; type: cell-based; conditions: Mesomycoplasma hyopneumoniae, UCD1; Table 3
M. suipneumoniae TAM 6N = assay: as above; type: cell-based; conditions: Mesomycoplasma hyopneumoniae, TAM6N; Table 3
M. hyorhinis ATCC 23234 = assay: as above; type: cell-based; conditions: Mesomycoplasma hyorhinis, ATCC23234; Table 3
M. hyorhinis ATCC 25021 = assay: as above; type: cell-based; conditions: Mesomycoplasma hyorhinis, ATCC25021; Table 3
M. dispar NCTC 10125 = assay: as above; type: cell-based
M. gallisepticum S6 = assay: as above; type: cell-based; conditions: Mycoplasmoides gallisepticum, Table 3
M. pneumoniae ATCC 15492 = assay: as above; type: cell-based; conditions: Mycoplasmoides pneumoniae, ATCC15492; Table 3
[8] = Serum binding by ultrafiltration; type: in vitro ADME; conditions: pig, 8 mcg/ml, read-out: % Bound to Pig Serum (converted)
Procedure: Serum binding was assessed by ultrafiltration of procine serum containing compounds at 8 mcg/ml, and through an Amicon CF50A ultrafiltration cone. Separation of ultrafiltrate was achieved by centrifugation. Unbound concentrations of compound were measured in the ultrafiltrate by microbiological assay (B. subtilis ATCC 6633) against standards prepared in saline.

E. coli NCTC 10418 [9] = assay: MIC by agar dilution, veterinary bacteria; conditions: Escherichia coli, NCTC10418, 24 h
E. coli E1 = assay: MIC by agar dilution, veterinary bacteria; conditions: Escherichia coli, E1, 24 h
S.dublin S7 = assay: MIC by agar dilution, veterinary bacteria; conditions: Salmonella enterica, S7, 24 h
Bord. bronchiseptica B08 = assay: MIC by agar dilution, veterinary bacteria; conditions: Bordetella bronchiseptica, B08, 24 h
Bord. bronchiseptica B09 = assay: MIC by agar dilution, veterinary bacteria; conditions: Bordetella bronchiseptica, B09, 24 h
Past. multocida PA1 = assay: MIC by agar dilution, veterinary bacteria; conditions: Pasteurella multocida, PA1, 24 h
Past. multocida PA2 = assay: MIC by agar dilution, veterinary bacteria; conditions: Pasteurella multocida, PA2, 24 h
Past. haemolytica PA5 = assay: MIC by agar dilution, veterinary bacteria; conditions: Mannheimia haemolytica, PA5, 24 h
[10] = tested on: Corynebacterium pyogenes CY1; assay: MIC by agar dilution, veterinary bacteria; conditions: CY1, 24 h
[11] = tested on: Staph. aureus 152 (pen sens); assay: MIC by agar dilution, veterinary bacteria; conditions: Staphylococcus aureus, 24 h
Strep. uberis SPU1 = assay: MIC by agar dilution, veterinary bacteria; conditions: Streptococcus uberis, SPU1, 24 h
Strep. agalactiae SPA1 = assay: MIC by agar dilution, veterinary bacteria; conditions: Streptococcus agalactiae, SPA1, 24 h

CCC(=O)C=C(C)CC1OCC(CC2OC2C(C)C(C)O)C(O)C1O [Example 2, 1-[3R,4R-Dihydroxy-5S-(2S,3S-epoxy-5-S-hydroxy-4S-methylhexyl)tetrahydropyran-2S-yl]-2-methylhex-2E-en-4-one]
MIC (E. coli NCTC 10418 [1]): > 50 µg/mL
MIC (Ps. aeruginosa 10662): > 50 µg/mL
MIC [2]: 0.2 µg/mL (≈ 0.561 µM)
MIC [3]: 0.5 µg/mL (≈ 1.4 µM)
MIC [4]: 0.5 µg/mL (≈ 1.4 µM)
MIC [5]: 25 µg/mL (≈ 70.1 µM)
MIC (Sarcina lutea 8340): > 50 µg/mL
MIC (Staph. aureus Oxford): 1.2 µg/mL (≈ 3.37 µM)
MIC (Staph. aureus Russell): 2.5 µg/mL (≈ 7.01 µM)
MIC (Staph. aureus W2827): 2.5 µg/mL (≈ 7.01 µM)
MIC (Strep. faecalis): > 50 µg/mL
MIC (Strep. pyogenes B 2788): 25 µg/mL (≈ 70.1 µM)
MIC (Strep. pyogenes C 2761): 25 µg/mL (≈ 70.1 µM)
MIC (Strep. pneumoniae CN33): 12.5 µg/mL (≈ 35.1 µM)
MIC (M.suipneumoniae NB12): 2.5 µg/mL (≈ 7.01 µM)
MIC (M. siupneumoniae HK(2)): 2.5 µg/mL (≈ 7.01 µM)
MIC (M. suipneumoniae Str. 11): 2.5 µg/mL (≈ 7.01 µM)
MIC [6]: 5 µg/mL (≈ 14 µM)
MIC (M. suipneumoniae MS 16): 2.5 µg/mL (≈ 7.01 µM)
MIC [7]: 2.5 µg/mL (≈ 7.01 µM)
MIC (M. suipneumoniae LABER): 2.5 µg/mL (≈ 7.01 µM)
MIC (M. suipneumoniae UCD 1): 5 µg/mL (≈ 14 µM)
MIC (M. suipneumoniae TAM 6N): 2.5 µg/mL (≈ 7.01 µM)
MIC (M. hyorhinis ATCC 23234): 2.5 µg/mL (≈ 7.01 µM)
MIC (M. hyorhinis ATCC 25021): 2.5 µg/mL (≈ 7.01 µM)
MIC (M. dispar NCTC 10125): 0.5 µg/mL (≈ 1.4 µM)
MIC (M. gallisepticum S6): > 10 µg/mL
MIC (M. pneumoniae ATCC 15492): > 10 µg/mL
fraction unbound [8]: 0.739
MIC (E. coli NCTC 10418 [9]): > 40 µg/mL
MIC (E. coli E1): > 40 µg/mL
MIC (S.dublin S7): > 40 µg/mL
MIC (Bord. bronchiseptica B08): > 40 µg/mL
MIC (Bord. bronchiseptica B09): 40 µg/mL (≈ 112 µM)
MIC (Past. multocida PA1): 0.625 µg/mL (≈ 1.75 µM)
MIC (Past. multocida PA2): 0.312 µg/mL (≈ 0.875 µM)
MIC (Past. haemolytica PA5): 5 µg/mL (≈ 14 µM)
MIC [10]: > 40 µg/mL
MIC [11]: 0.312 µg/mL (≈ 0.875 µM)
MIC (Strep. uberis SPU1): 5 µg/mL (≈ 14 µM)
MIC (Strep. agalactiae SPA1): 20 µg/mL (≈ 56.1 µM)

CCCCC(=O)C=C(C)CC1OCC(CC2OC2C(C)C(C)O)C(O)C1O [Example 3, 1-[3R,4R-Dihydroxy-5S-(2S,3S-epoxy-5S-hydroxy-4S-methylhexyl)tetrahydropyran-2S-yl]-2-methyloct-2E-en-4-one]
MIC (E. coli NCTC 10418 [1]; Table 1, read-out: MIC): > 100 µg/mL
MIC (Ps. aeruginosa 10662; Table 1, read-out: MIC): > 100 µg/mL
MIC [2]: 0.2 µg/mL (≈ 0.52 µM)
MIC ([3]; Table 1, read-out: MIC): 0.2 µg/mL (≈ 0.52 µM)
MIC ([4]; Table 1, read-out: MIC): 0.5 µg/mL (≈ 1.3 µM)
MIC [5]: 100 µg/mL (≈ 260 µM)
MIC (Sarcina lutea 8340; Table 1, read-out: MIC): > 100 µg/mL
MIC (Staph. aureus Oxford): 1 µg/mL (≈ 2.6 µM)
MIC (Staph. aureus Russell): 1 µg/mL (≈ 2.6 µM)
MIC (Staph. aureus W2827): 2.5 µg/mL (≈ 6.5 µM)
MIC (Strep. faecalis; Table 1, read-out: MIC): > 100 µg/mL
MIC (Strep. pyogenes B 2788): 2.5 µg/mL (≈ 6.5 µM)
MIC (Strep. pyogenes C 2761): 2.5 µg/mL (≈ 6.5 µM)
MIC (Strep. pneumoniae CN33): 5 µg/mL (≈ 13 µM)
MIC (M.suipneumoniae NB12): 1 µg/mL (≈ 2.6 µM)
MIC (M. siupneumoniae HK(2)): 1 µg/mL (≈ 2.6 µM)
MIC (M. suipneumoniae Str. 11): 0.5 µg/mL (≈ 1.3 µM)
MIC [6]: 1 µg/mL (≈ 2.6 µM)
MIC (M. suipneumoniae MS 16): 0.5 µg/mL (≈ 1.3 µM)
MIC [7]: 0.5 µg/mL (≈ 1.3 µM)
MIC (M. suipneumoniae LABER): 0.5 µg/mL (≈ 1.3 µM)
MIC (M. suipneumoniae UCD 1): 1 µg/mL (≈ 2.6 µM)
MIC (M. suipneumoniae TAM 6N): 1 µg/mL (≈ 2.6 µM)
MIC (M. hyorhinis ATCC 23234): 0.5 µg/mL (≈ 1.3 µM)
MIC (M. hyorhinis ATCC 25021): 0.5 µg/mL (≈ 1.3 µM)
MIC (M. dispar NCTC 10125; Table 3, read-out: MIC): 0.25 µg/mL (≈ 0.65 µM)
MIC (M. gallisepticum S6): > 10 µg/mL
MIC (M. pneumoniae ATCC 15492): 10 µg/mL (≈ 26 µM)
fraction unbound [8]: 0.469
MIC (E. coli NCTC 10418 [9]): > 80 µg/mL
MIC (E. coli E1): > 80 µg/mL
MIC (S.dublin S7): > 80 µg/mL
MIC (Bord. bronchiseptica B08): > 80 µg/mL
MIC (Bord. bronchiseptica B09): 40 µg/mL (≈ 104 µM)
MIC (Past. multocida PA1): 2.5 µg/mL (≈ 6.5 µM)
MIC (Past. multocida PA2): 1.25 µg/mL (≈ 3.25 µM)
MIC (Past. haemolytica PA5): 20 µg/mL (≈ 52 µM)
MIC [10]: > 80 µg/mL
MIC [11]: 2.5 µg/mL (≈ 6.5 µM)
MIC (Strep. uberis SPU1): 2.5 µg/mL (≈ 6.5 µM)
MIC (Strep. agalactiae SPA1): 10 µg/mL (≈ 26 µM)
